Test results published in publication PMC11484510, “Antibacterial activity of structurally diverse natural prenylated isobavachalcone derivatives” (RSC Advances, 2024).
≈ marks a conversion by molar mass, not a printed value. Entries after “also recorded” stand apart in the source; their conditions may differ. Where two headings read alike, the source gives them in different places.

Tests used:
MRSA ATCC 15187 = assay: MIC, broth microdilution (CLSI), Alamar blue; type: cell-based, Methicillin-resistant S. aureus; settings: read-out: Minimum inhibitory concentration (MIC) MRSA
Description: (§1) The bacterial strains S. aureus ATCC 29213, MRSA ATCC 15187, E. coli ATCC 25922, and P. aeruginosa ATCC 27853 were obtained from ATCC (American Type Culture Collection). Cation-adjusted Mueller–Hinton broth (MHB; Becton–Dickinson, Cockeysville, MD) was used to determine the minimum inhibitory concentration (MIC). Mueller–Hinton agar (MHA; Becton–Dickinson) was used for minimum bactericidal concentration (MBC) studies. Alamar blue (Himedia) was used to detect the MIC value.
(§2) The antibacterial activity of the compounds against S. aureus ATCC 29213, MRSA ATCC 15187, E. coli ATCC 25922, and P. aeruginosa ATCC 27853 was determined through a broth microdilution method according to the guidelines of the Clinical and Laboratory Standards Institute (CLSI).[50] […] Growth control and media control were employed along with 2% DMSO as vehicle control.
(§3) In a 96-well flat bottom plate, the test compounds were two-fold serially diluted in Mueller Hinton Broth (MHB). The final concentrations of the compounds ranged from 100 to 0.08 μM. 100 μL of standardized bacterial inoculum with turbidity equivalent to 0.5 McFarland standard (1.5 × 10^8 CFU mL^−1) was diluted 1 : 100 (1.5 × 10^6 CFU mL^−1) in Mueller Hinton Broth and inoculated in the plates.[51] The plates were incubated for 24 hours at 37 °C. After incubation, 10 μL of freshly prepared Alamar blue (Himedia) was added to each well of the plate, and plates were further incubated at 37 °C for 30 minutes. After incubation, the fluorescence was measured at excitation/emission of 540–570/580–610 nm. The percentage inhibition and viability were calculated for the controls, and the Gompertz curve was utilized to estimate the minimum inhibitory concentration.

E. coli ATCC 25922 = assay: MIC, broth microdilution (CLSI), Alamar blue; type: cell-based; settings: E. coli ATCC 25922, 24 hours at 37 °C, read-out: Minimum inhibitory concentration (MIC) E. coli
Description: as §1, §2, §3

P. aeruginosa ATCC 27853 [1] = assay: MIC, broth microdilution (CLSI), Alamar blue; type: cell-based; settings: P. aeruginosa ATCC 27853, 24 hours at 37 °C, read-out: Minimum inhibitory concentration (MIC) P. aeruginosa
Description: as §1, §2, §3

S. aureus ATCC 29213 [2] = assay: MIC, broth microdilution (CLSI), Alamar blue; type: cell-based; settings: S. aureus ATCC 29213, 24 hours at 37 °C, read-out: Minimum inhibitory concentration (MIC) S. aureus
Description: as §1, §2, §3

P. aeruginosa ATCC 27853 [3] = assay: MBC, plating on MHA; type: cell-based; settings: Pseudomonas aeruginosa, ATCC27853; more than 99.9% of the cells killed; read-out: Minimum bactericidal concentration (MBC) P. aeruginosa
Description: as §1
(§4) MBC is defined as the lowest concentration of the compound at which more than 99.9% of the cells were killed compared with the growth control. The minimum compound concentration at which no visible bacterial growth was observed was taken as the Minimum Bactericidal Concentration (MBC).[50]

S. aureus ATCC 29213 [4] = assay: MBC, plating on MHA; type: cell-based; settings: Staphylococcus aureus, ATCC29213; more than 99.9% of the cells killed; read-out: Minimum bactericidal concentration (MBC) S. aureus
Description: as §1, §4

[5] = Cell viability assay (MTT); type: cell-based, murine; settings: mouse, RAW 264.7 macrophage cells; RAW 264.7 macrophage cell line, MTT assay
Description: (§5) RAW 264.7 cells were acquired from the American type culture collection (ATCC, Manassas, VA) and cultured in Dulbecco's modified eagle's medium (DMEM, Gibco, Life Technologies, NY) supplemented with 10% fetal bovine serum (FBS) at 37 °C and 5% CO2. MTT dye (Himedia) was used to detect CC50 values. The antibiotics ciprofloxacin hydrochloride monohydrate (Himedia), kanamycin sulfate (Himedia), and vancomycin (Himedia) were used for reference in microbiological assays.
(§6) The effect of compounds (IBC, IBC-2, and IBC-3) on the viability of cells was evaluated at different concentrations against macrophage cell lines through the 3-(4,5-dimethylthiazol2-yl)-2, 5-diphenyltetrazolium bromide (MTT) assay. The RAW 264.7 cells are monocyte/macrophage-like cells originating from an Abelson leukemia virus-transformed cell line derived from BALB/c mice. Due to their reliability and consistency, these cell lines are widely utilized for both in vitro and in vivo analyses.[52] The MTT assay is a colorimetric assay used to measure the viability and cytotoxicity of cells. The cells (2 × 10^4 cells per well) were grown at 37 °C with 5% CO2 for 48 hours, then exposed to compounds with different concentrations. […] After 20–21 hours, 20 μL of MTT dye at 2.5 mg mL^−1 concentration was added to each well and incubated for 4 hours. 100 μL DMSO solubilized the water-insoluble purple and white formazan produced.[53] The formation of the formazan salt by mitochondrial dehydrogenases was measured at 570.0 nm after incubating for 20 min. The percentage cytotoxicity was calculated with respect to the untreated cells, and the CC50 value was calculated. CC50 was defined as the concentration of an inhibitor that reduces cellular activities by 50% compared to untreated control cultures. The CC50 values were calculated as the concentration where the absorbance was reduced by 50% using GraphPad Prism software.[54] The selectivity index (SI) determines the safety profile of the compound. It is calculated as the ratio of compound concentration at which 50% of cell growth is inhibited compared to untreated cells (CC50) to the effective inhibiting concentration against bacterial strain (MIC). The high SI (>10 fold of MIC) of a drug is proven to have a favorable safety profile.[28] Selectivity index (SI) = CC50 of the compound (μM)/MIC of the compound (μM).

[6] = system: RAW 264.7 macrophage cell line; assay: Cell viability assay (MTT); type: cell-based, murine; settings: CC50 (RAW 264.7)/MIC with respect to S. aureus
Description: as §5, §6

S. aureus ATCC 29213 [7] = assay: Time-kill assay; type: cell-based; settings: for Time-kill profile: MIC, 2× MIC, 4× MIC, 1 h to 24 h, 37 °C
S. aureus [8] = assay: Combinational study (checkerboard microdilution) with standard drugs; type: cell-based; settings: for MIC: Staphylococcus aureus, read-out: MIC alone
Description: The Fractional Inhibitory Concentration Index (FICI) was calculated for each test compound and reference drug to find the combinational effect.
In a 96-well flat bottom plate, the reference drug with 4× MIC was serially diluted horizontally. The test compounds with 4× MIC were serially diluted two-fold outside the plate in 1.5 mL Eppendorf's using Mueller Hinton Broth (MHB). These two serially diluted compounds were combined to create drug-compound combinations in the plate. The reference drug (horizontally) and tested compounds (vertically) alone were serially diluted for MIC determination. 100 μL of the standardized bacterial inoculum with a turbidity equivalent to a 0.5 McFarland standard were diluted 1 : 100 in Mueller Hinton Broth and inoculated in the plates. The plates were incubated for 24 hours at 37 °C. After incubation, 10 μL of freshly prepared Alamar blue (Himedia) was added to each well of the plate, and the plates were further incubated at 37 °C for 30 minutes. After incubation, the plates were visually observed. […] The FICI was calculated using the formula FICI = FIC of compound + FIC of drug. The calculation followed is FICI (CA/(MICA)) + (CB/(MICB)), where CA is the MIC of the compound in combination, CB is the MIC of the drug in combination, and MICA and MICB are the MIC values of individual compounds and drugs, respectively. The range selection followed the interpretation criteria. The FICI range of 0.5 to 4 indicates indifference, ≤ or =0.5 indicates synergy and >4 indicates antagonism.[57]

S. aureus [9] = assay: Cell integrity analysis by PI staining; type: cell-based; settings: drug control at 1× MIC, 30 minutes
Description: Propidium iodide (PI) indicates cell integrity, emitting a red fluorescence signal. PI's polar and hydrophilic nature impedes its entrance within active bacterial cells, but within perforated dead cells, it can easily bind to nucleic acid (DNA/RNA).[32,60]S. aureus bacterial cells were incubated overnight at 37 °C and diluted further 1 : 100 in Mueller Hinton Broth (MHB). The diluted culture was grown until its OD600 reached 0.5. […] Vancomycin was used as a drug control at 1× MIC, while untreated bacterial cells were used as growth control. The samples were centrifuged at 5000 rpm speed at 4 °C temperature for 10 minutes, and the pellet was washed two times using phosphate-buffered saline pH-7.4 (PBS). To stain the sample (dead cells), 3 μL PI of 20.0 mM concentration was added to the 1 mL solution (pellet resuspended in PBS) and incubated for 15 minutes. To remove the dye, the samples were centrifuged again and washed with PBS once. The final pellet was resuspended in 1 mL of PBS, and 30 μL of each undiluted sample was used to obtain fluorescence imaging. The cells were observed under fluorescence microscopy.[61]

[10] = MRSA ATCC 15187, 24 hours at 37 °C
[11] = Staphylococcus aureus, MRSA ATCC 15187, 24 hours at 37 °C
[12] = Pseudomonas aeruginosa, ATCC27853, 24 h
[13] = Staphylococcus aureus, ATCC29213
[14] = MIC of the compound in combination with ciprofloxacin, S. aureus
[15] = MIC of the compound in combination with vancomycin, S. aureus
[16] = checkerboard, S. aureus, substance alone
[17] = compound with ciprofloxacin, S. aureus
[18] = compound with vancomycin, S. aureus

SMILES | MIC (MRSA ATCC 15187; [10]) [µM] | MIC (MRSA ATCC 15187; [11]) [µM] | MIC (E. coli ATCC 25922) [µM] | MIC (E. coli ATCC 25922; Escherichia coli, ATCC25922) [µM] | MIC (P. aeruginosa ATCC 27853 [1]; [12]) [µM] | MIC (S. aureus ATCC 29213 [2]) [µM] | MIC (S. aureus ATCC 29213 [2]; [13]) [µM] | MBC (P. aeruginosa ATCC 27853 [3]) [µM] | MBC (S. aureus ATCC 29213 [4]) [µM] | CC50 [5] [µM] | Time-kill profile (S. aureus ATCC 29213 [7]) | MIC combination (compound) (S. aureus [8]; [14]) [µM] | MIC combination (compound) (S. aureus [8]; [15]) [µM] | MIC (S. aureus [8]; [16]) [µM] | Outcome of combination (S. aureus [8]; [17]) | ∑ FICI (S. aureus [8]; [17]) | Outcome of combination (S. aureus [8]; [18]) | ∑ FICI (S. aureus [8]; [18]) | further results
CC(C)=CCc1c(O)ccc(C(=O)/C=C/c2ccc(O)cc2)c1O [IBC, (E)-1-(2,4-dihydroxy-3-(3-methylbut-2-en-1-yl)phenyl)-3-(4-hydroxyphenyl) prop-2-en-1-one] | >100 | > 100 | >100 | > 100 | 24 (≈ 7.79 µg/mL) | 5 (≈ 1.62 µg/mL) | 5 (≈ 1.62 µg/mL) | 25 (≈ 8.11 µg/mL) | 6.25 (≈ 2.03 µg/mL) | 94 | after 24 hours, an increase in CFU was observed; also recorded: concentration-dependent killing till 9 h | 5 | 2.5 | 5 | Indifference (The FICI range of 0.5 to 4 indicates indifference) | 1.25 | Indifference (The FICI range of 0.5 to 4 indicates indifference) | 0.99 | Selectivity index (SI) [6]: 19
CC1(C)CCc2c(ccc3c2OC(c2ccc(O)cc2)CC3=O)O1 (stereo not drawn) [IBC-2, 2-(4-hydroxyphenyl)-8,8-dimethyl-2,3,9,10-tetrahydro-4H,8H-pyrano[2,3-f]chromen-4-one] | >100 | > 100 | >100 | > 100 | 24 (≈ 7.79 µg/mL) | 5 (≈ 1.62 µg/mL) | 5 (≈ 1.62 µg/mL) | 50 (≈ 16.2 µg/mL) | 12.5 (≈ 4.05 µg/mL) | 115 | concentration-dependent killing effect; also recorded: concentration and time-dependent killing effects | 0.625 | 5 | 5 | Indifference (The FICI range of 0.5 to 4 indicates indifference) | 0.625 | Indifference (The FICI range of 0.5 to 4 indicates indifference) | 2 | MIC (P. aeruginosa ATCC 27853 [1]): 22 µM (≈ 7.14 µg/mL); CFU count of S. aureus ATCC 29213 in time-kill study (S. aureus ATCC 29213 [7]; 2× MIC and 4× MIC, with increasing time (up to 24 h)): below the detection limit
CN[C@H](CC(C)C)C(=O)N[C@H]1C(=O)N[C@@H](CC(N)=O)C(=O)N[C@H]2C(=O)N[C@H]3C(=O)N[C@H](C(=O)N[C@H](C(=O)O)c4cc(O)cc(O)c4-c4cc3ccc4O)[C@H](O)c3ccc(c(Cl)c3)Oc3cc2cc(c3O[C@@H]2O[C@H](CO)[C@@H](O)[C@H](O)[C@H]2O[C@H]2C[C@](C)(N)[C@H](O)[C@H](C)O2)Oc2ccc(cc2Cl)[C@H]1O [Vancomycin, vancomycin, reference compound] |  |  |  |  |  |  |  |  |  |  |  |  |  |  |  |  |  |  | MIC (MRSA ATCC 15187; Staphylococcus aureus, 24 h): 0.7 µM (≈ 1.01 µg/mL); MIC combination (drug) (S. aureus [8]; MIC of vancomycin in combination with IBC, S. aureus): 0.39 µM; MIC combination (drug) (S. aureus [8]; MIC of vancomycin in combination with IBC-2, S. aureus): 0.78 µM; MIC combination (drug) (S. aureus [8]; MIC of vancomycin in combination with IBC-3, S. aureus): 0.02 µM; MIC (S. aureus [8]): 0.78 µM; PI red fluorescence (cell integrity) (S. aureus [9]): higher number of dead cells emitting red fluorescence
